US20250376481A1, “POLYCYCLIC CARBAMOYL PYRIDONE DERIVATIVE, PREPARATION METHOD THEREFOR AND PHARMACEUTICAL COMPOSITION THEREOF” (NANJING AIDEA PHARMACEUTICAL TECHNOLOGY CO., LTD., priority 2021, published 2025)
Like-named read-outs stand apart in the source and are kept apart here.

Key:
[1] = tested on: HIV-1 pseudovirus; assay: HIV-1 pseudovirus infection test (antiviral activity, luciferase); assay type: cell-based
Method: (§1) • Virus: The HIV-1 pseudovirus used in this experiment was a replication deficient virus, which is constructed by WuXi AppTec. • HEK 293T cell line was purchased from ATCC, and Item No. is CRL-11268. Cells were cultured in DMEM medium with 10% fetal bovine serum and 1% double antibody. • Reagents
(§2) On the first day, HEK 293T cells were inoculated into a 96 well test plate at the density of 55000 cells per well and […] per well, and incubated overnight in a 5% CO2 and 37° C. incubator.
(§3) On the second day, the tested compounds (compounds provided in the example of the present invention) and the control compounds were diluted 4-fold with cell culture medium for a total of 8 concentration points, and 50 μL diluted compounds were added to each well, and each well was performed duplicate.
Subsequently, the HIV-1 pseudovirus was diluted to 100 TCID50/50 μL with cell culture medium, and 50 μL diluted virus was added to each well.
(§4) Cell Control (cells, no compound treatment or virus infection) and virus control (cells infected with virus, no compound treatment) were set up. The final initial test concentration of the tested compounds and control compounds was 1000 nM (Table 1), and the amount of virus infection was 100 TCID50 per well. The total volume of cell culture medium was 200 μL per well, and the final concentration of DMSO in the culture medium was 0.5%.
(§5) The cells were cultured in a 5% CO2 and 37° C. incubator for additional 3 days.
On the fifth day, in the antiviral activity test plates, 100 μL cell supernatant was sucked away from each well, 100 μL 2X luciferase reporter gene assay reagent Britellite plus was added in dark. The luciferase activity in each well of the test plates was detected by Envision. The data was used for sample antiviral activity analysis.
(§6) Dose-response curve was drawn through GraphPad Prism software. The calculation equations for antiviral activity (% Inhibition) and cell viability (% cell viability) were as follow:
(§7) The values of EC50 and CC50 were analyzed by GraphPad Prism (version 5) software, and nonlinear fitting analysis was used for inhibitory activity and cell viability of the compounds, and the fitting method was “log (inhibitor) vs. response—Variable slope”.
(§8) 3. The HIV-1 pseudovirus experiment was applied to determinate the in vitro antiviral activity and cytotoxicity of the tested compound on HEK 293T cells, and the experimental results were shown in the table below.

[2] = Cytotoxicity test (cell viability, CellTier Glo); assay type: cell-based; settings: human
Method: as §1, §2, §3, §4, §5
(§9) On the fifth day, in the cytotoxicity test plates, 100 μL cell supernatant were sucked from each well, 100 μL cell viability assay reagent CellTier Gloin was added in dark. Cell viability in each well was detected by BioTek enzyme-linked immunosorbent assay reader, and the data was used for sample cytotoxicity analysis.
as §6, §7, §8

[3] = Oil-water partition coefficient (n-octanol / pH 7.4 phosphate buffer); assay type: physicochemical
Method: • a) To a 5 mL glass bottle was added 1 mL n-octanol and 1 mL pH 7.4 phosphate buffer, respectively. • b) The compound was added to a DMSO solution to prepare a compound stock solution with a concentration of 10 mM, and then 20 μL compound stock solution was added to the mixture solution of n-octanol and phosphate buffer. • c) Shaken at room temperature for 1 hour at a rate of 300/minute. • d) Kept for 30 minutes, and after the solution was completely layered, the upper and lower layers of the solution were taken separately to a 96 well deep well plate, and LC-MS/MS was used for detection via injection. • e) The aliquots of 1-octanol and aqueous solution were diluted consecutively with DMSO to obtain the final sample for LC-MS/MS analysis. Three consecutive dilutions were carried on every 1-octanol phase with covering a concentration range of 2500 fold. Every final aqueous phase was diluted consecutively twice with covering a concentration range of 100 fold. The MS peak areas of these solutions were used to generate log (peak area) based on the log (relative concentration) calibration line.
[formula] • Coct=sample concentration in n-octanol • Caq=sample concentration in pH 7.4 phosphate buffer

[4] = biological target: HIV-1 integrase (Human immunodeficiency virus type 1 group M subtype B, UniProt P04585); assay: Integrase activity test (HIV-1 Integrase Assay Kit EZ-1700)
Method: A non-radioactive assay method, an integrase assay kit, was used to measure integrase activity quantitatively.
Each component was prepared according to the instructions of the kit; preparation of test sample, 5 mM DMSO solution was prepared for backup, working solution was prepared according to the initial final concentration determined at the time of method establishment, with a 4-fold gradient dilution and 10 concentrations.
• (1) The working solution of sample was prepared according to the initial concentration determinated during the methodology establishment process; • (2) Reagents were prepared according to the methods provided in the kit; • (3) DS DNA coating—blocking—addition of integrase solution—addition of sample—addition of TS DNA—addition of HRP antibody-addition of TMB peroxidase substrate—TMB termination reaction-detection of light absorption value at 450 nm.
The software Graphpad Prism 8.0 was applied and the calculation equation of Log (inhibitor) vs. response variable slope was used to fit the IC50 curve.

[5] = PK test of compounds (mouse); assay type: in vivo, ICR mice; settings: for bioavailability (in words): PK test in mice; for half-life / bioavailability: male, mouse, plasma, ICR mice; for half-life: PO 10 mg/kg; for bioavailability: PO 10 mg/kg (IV 2 mg/kg)
Method: The mice were not fed until 5 pm on the day before administration, and fasted overnight with water. The mice in Group IV were administered with 2 mg/kg, while those in Group PO were administered with 10 mg/kg. Feeding was resumed 2 hours after administration. For mice administered by gavage, 20 μL blood was collected from the saphenous vein in calf before administration and 0.25, 0.5, 1, 2, 4, 8, and 24 hours after administration, respectively, and placed in EDTA-K2 anticoagulant blood collection tubes, and then the blood would be placed on ice until centrifuged to obtain plasma samples. The plasma samples were centrifuged at 4° C. (3500 rpm, 10 min), and after separation, the samples were transferred to EP tubes and stored at −80° C. for detection. For mice admistrated by intravenous injection, 20 μL blood was collected from the saphenous vein in calf before administration and 0.0833, 0.25, 0.5, 1, 2, 4, 8 and 24 hours after administration, respectively, and placed in EDTA-K2 anticoagulant blood collection tubes, and then the blood would be placed on ice until centrifuged to obtain a plasma sample. The plasma samples were centrifuged at 4° C. (3500 rpm, 10 min), and after separation, the samples were transferred to EP tubes and stored at −80° C. for detection. The level of tested compounds in blood plasma of mice, who had orally administrated with different concentrations of drugs were determinated: 10 μL mouse blood at each time point after administration was taken, 100 μL methanol containing an internal standard (100 ng/mL) was added, vortex mixed for 1 minute, centrifuged at 4° C. (12000 rmp, 5 minutes), and 1 μL supernatant was taken from the plasma samples for LC-MS/MS analysis.

[6] = tested on: HEK 293T cells; assay: Cytotoxicity test (cell viability, CellTier Glo); assay type: cell-based; settings: HEK 293T cells, highest test concentration 1000 nM
Method: as §1, §2, §3, §4, §5, §9, §6, §7, §8

[7] = Human immunodeficiency virus 1, HEK-293T, 72 h
[8] = n-octanol / pH 7.4 phosphate buffer, pH 7.4, read-out: Log D (pH 7.4)
[9] = HIV-1 pseudovirus, HEK 293T cells, 3 days, luciferase, read-out: EC50

O=C(NCc1ccc(F)cc1F)c1cn2c(c(O)c1=O)C(=O)N1C(C2)OCCC12CC2 (racemic) [Compound 13, (2,4-difluorophenyl)-7′-hydroxy-6′,8′-dioxo-2′,3′,6′,8′,12′,12a′-hexahydrospiro[cyclopropane-1,4′-pyridino[1′,2′:4,5]pyrazine[2,1-b][1,3]oxazine]-9′-formamide]
EC50 [1, 7]: 1.05 nM | CC50 at 3 days [2]: > 1000 nM | logD ([3]; pH 7.4): 1.5

O=C(NCc1ccc(F)cc1F)c1cn2c(c(O)c1=O)C(=O)N1C(C2)OCC12CC2 (racemic) [Compound 16]
EC50 [1, 7]: 1.11 nM | CC50 at 3 days [2]: > 1000 nM | logD ([3]; pH 7.4): 1.8

O=C(NCc1c(F)cc(F)cc1F)c1cn2c(c(O)c1=O)C(=O)N1[C@H]3CC[C@H](C3)O[C@@H]1C2 [BIC, Bictegravir, reference compound]
IC50 [4]: 21.2 nM

C[C@H]1N2C(=O)c3c(O)c(=O)c(C(=O)NCc4ccc(F)cc4F)cn3C[C@@H]2OCC12CCC2 [Compound 2]
EC50 [1, 7]: 1.19 nM | CC50 at 3 days [2]: > 1000 nM | logD [3, 8]: 2.5 | bioavailability (in words) [5]: good bioavailability | half-life [5]: 1.94 ± 0.04 h | bioavailability [5]: 50.8%

C[C@H]1N2C(=O)c3c(O)c(=O)c(C(=O)NCc4ccc(F)cc4F)cn3C[C@@H]2OCC12CCCC2 [Compound 3]
EC50 [1, 7]: 5.63 nM | CC50 at 3 days [2]: > 1000 nM

C[C@H]1N2C(=O)c3c(O)c(=O)c(C(=O)NCc4ccc(F)cc4F)cn3C[C@@H]2OCC12CCCCC2 [Compound 4]
EC50 [1, 7]: 5.83 nM | CC50 at 3 days [2]: > 1000 nM

C[C@H]1N2C(=O)c3c(O)c(=O)c(C(=O)NCc4ccc(F)cc4F)cn3C[C@@H]2OCC12CCOCC2 [Compound 5]
EC50 [1, 7]: 4.45 nM | CC50 at 3 days [2]: > 1000 nM

C[C@@H]1CC2(CC2)O[C@H]2Cn3cc(C(=O)NCc4ccc(F)cc4F)c(=O)c(O)c3C(=O)N12 [Compound 6]
EC50 [1, 7]: 3.03 nM | CC50 at 3 days [2]: > 1000 nM | logD [3, 8]: 2 | bioavailability (in words) [5]: good bioavailability | half-life [5]: 2.68 ± 0.66 h | bioavailability [5]: 42.5%

C[C@@H]1CC2(CCCC2)O[C@H]2Cn3cc(C(=O)NCc4ccc(F)cc4F)c(=O)c(O)c3C(=O)N12 [Compound 7]
EC50 [1, 7]: 11.6 nM | CC50 at 3 days [2]: > 1000 nM

C[C@@H]1CC2(CCCCC2)O[C@H]2Cn3cc(C(=O)NCc4ccc(F)cc4F)c(=O)c(O)c3C(=O)N12 [Compound 8]
EC50 [1, 7]: 13.7 nM | CC50 at 3 days [2]: > 1000 nM

C[C@@H]1CC2(CCOCC2)O[C@H]2Cn3cc(C(=O)NCc4ccc(F)cc4F)c(=O)c(O)c3C(=O)N12 [Compound 9]
EC50 [1, 7]: 5.09 nM | CC50 at 3 days [2]: > 1000 nM

C[C@H]1N2C(=O)c3c(O)c(=O)c(C(=O)NCc4ccc(F)cc4F)cn3C[C@@H]2OC12CC2 [Compound 10]
EC50 [1, 7]: 2.7 nM | CC50 at 3 days [2]: > 1000 nM | logD [3, 8]: 1.9 | bioavailability (in words) [5]: good bioavailability | half-life [5]: 1.53 ± 1.06 h | bioavailability [5]: 32.9%

C[C@H]1N2C(=O)c3c(O)c(=O)c(C(=O)NCc4ccc(F)cc4F)cn3C[C@@H]2OC12CCCCC2 [Compound 12]
EC50 [1, 7]: 4.93 nM | CC50 at 3 days [2]: > 1000 nM

C[C@@H]1CCO[C@H]2Cn3cc(C(=O)NCc4ccc(F)cc4F)c(=O)c(O)c3C(=O)N12 [DTG, Dolutegravir, reference compound]
antiviral activity against HIV-1 pseudovirus (in words) ([1]; HEK 293T cells): have antiviral activity | EC50 [1, 7]: 1.49 nM | CC50 at 3 days [2]: > 1000 nM | logD [3, 8]: 1.6 | half-life [5]: 3.7 ± 0.09 h | bioavailability [5]: 46%

Cc1nnc(C(=O)NC(C)(C)c2nc(C(=O)NCc3ccc(F)cc3)c(O)c(=O)n2C)o1 [RAL, Raltegravir, reference compound]
antiviral activity against HIV-1 pseudovirus (in words) ([1]; HEK 293T cells): have antiviral activity | EC50 [1, 7]: 3.42 nM | CC50 at 3 days ([2]; HEK 293T cells, highest test concentration 1000 nM, read-out: CC50): > 1000 nM

C[C@]12CC[C@H]3[C@@H](CCC4=CC(=O)CC[C@@]43C)[C@@H]1CC[C@@H]2O [Testosterone, reference compound]
logD ([3]; n-octanol / pH 7.4 phosphate buffer, read-out: Log D (pH 7.4)): 2.85

(R)—N-(2,4-difluorophenyl)-6′-hydroxy-5′,7′-dioxo-5′,7′,11′,11a′-tetrahydro-2′H-spiro[cyclopropane-1,3′-oxazole[3,2-a]pyridino[1,2-d]pyrazine]-8′-formamide [Compound 18]
EC50 [1, 9]: 3.34 nM | CC50 [6]: > 1000 nM

(R)—N-(2,4-difluorophenyl)-7′-hydroxy-6′,8′-dioxo-2′,3′,6′,8′,12′,12a′-hexahydrospiro[cyclopropane-1,4′-pyridino[1′,2′:4,5]pyrazine[2,1-b][1,3]oxazine]-9′-formamide [Compound 15]
EC50 [1, 9]: 14 nM | CC50 [6]: > 1000 nM

(S)—N-(2,4-difluorophenyl)-6′-hydroxy-5′,7′-dioxo-5′,7′,11′,11a′-tetrahydro-2′H-spiro[cyclopropane-1,3′-oxazole[3,2-a]pyridino[1,2-d]pyrazine]-8′-formamide [Compound 17]
EC50 [1, 9]: 3.73 nM | CC50 [6]: > 1000 nM

(S)—N-(2,4-difluorophenyl)-7′-hydroxy-6′,8′-dioxo-2′,3′,6′,8′,12′,12a′-hexahydrospiro[cyclopropane-1,4′-pyridino[1′,2′:4,5]pyrazine[2,1-b][1,3]oxazine]-9′-formamide [Compound 14]
EC50 [1, 9]: 8.72 nM | CC50 [6]: > 1000 nM
